Reference: US20260306514A1, “ORAL PHARMACEUTICAL FORMULATIONS CONTAINING 4-((2-HYDROXY-3-METHOXYBENZYL)AMINO) BENZENESULFONAMIDE DERIVATIVES” (Cadrenal Therapeutics, Inc., priority 2022, published 2026)
Converted amounts (≈) assume the structure as drawn. Like-named read-outs stand apart in the source and are kept apart here. One block for each compound: values may come before it.

What was measured:
[1] = Aqueous solubility; format: physicochemical; conditions: for solubility in water: in words
[2] = system: 12-LOX; conditions: in words; cited from earlier work
[3] = Solubility of Compound 1 in organic solvents relevant to spray drying (Table 3); format: physicochemical; conditions: for solubility: organic solvent or mixture, read-out: Solubility Concentration
Experimental: THF was the most suitable solvent, and could be combined with other solvents such as acetone, ethanol and water to enable dissolution of the drug, polymer and additives in the formulation. Furthermore, given the anticipated dose of the product, maximizing the drug loading in the amorphous dispersion was essential.
Solubility in organic solvents relevant to spray draying were conducted ([…]), showing that THF with EtOH in water was preferred (85/10/5).

[4] = Oral bioavailability of Compound 1 suspension in mice; conditions: mouse, in vivo, suspension in 0.5% methylcellulose
Text: While this vehicle is sufficient for short term efficacy studies, the inventors needed a more robust and clinically relevant formulation for the longer dosing regimens required for mouse efficacy models.

[5] = Rat PK of Compound 1, IV and oral solution (Table 2); format: in vivo, rats
Text: The intravenous formulation uses cyclodextrin (CD) to increase solubility. […] The inventors explored a new approach to oral formulation without guidance from the art including lipid solubility screening in various non-aqueous vehicles, self micro-emulsifying systems with oils, surfactants, and co-surfactants, amorphous solid dispersions via hot melt and spray drying, micronization, and in silico screen of supercritical fluid nanoparticle engineering. […] The pharmaceutical acceptable carrier can be a polymer.

[6] = Rat PK of Compound 1, IV and oral suspension (Table 1); set-up: species or system rats; conditions: in vivo; for bioavailability: po, rats
Text: The intravenous formulation uses cyclodextrin (CD) to increase solubility. However, a drug loading of <10% is not suitable for oral formulation. The inventors explored a new approach to oral formulation without guidance from the art including lipid solubility screening in various non-aqueous vehicles, self micro-emulsifying systems with oils, surfactants, and co-surfactants, amorphous solid dispersions via hot melt and spray drying, micronization, and in silico screen of supercritical fluid nanoparticle engineering. […] The pharmaceutical acceptable carrier can be a polymer.

solubility in water [1]: poor solubility in water
Structure (SMILES): COc1cccc(CNc2ccc(S(=O)(=O)Nc3cccc(C(C)C)c3)cc2)c1O [Compound 3, 4-((2-hydroxy-3-methoxybenzyl)amino)-N-(3-isopropylphenyl)benzenesulfonamide]
12-LOX inhibitor selectivity [2]: selective
12-LOX inhibitory potency [2]: highly potent

Soluble ([3]; 50:45:5 Tetrahydrofuran:Acetone:Water): Yes
solubility ([3]; 50:45:5 tetrahydrofuran:acetone:water): 10000 µg/mL (≈ 22.6 mM)
Soluble ([3]; 50:50 Acetone:Methanol): No
Soluble ([3]; 50:50 Methylene Chloride:Methanol): No
solubility ([3]; 50:50 acetone:methanol): < 2500 µg/mL
solubility ([3]; 50:50 methylene chloride:methanol): < 2500 µg/mL
Soluble ([3]; 85:10:5 Tetrahydrofuran:Ethanol:Water): Yes
solubility ([3]; 85:10:5 tetrahydrofuran:ethanol:water): 10000 µg/mL (≈ 22.6 mM)
Soluble ([3]; 95:5 Tetrahydrofuran:Water): Yes
solubility ([3]; 95:5 tetrahydrofuran:water): 10000 µg/mL (≈ 22.6 mM)
bioavailability [4]: < 5%
C0 or Cmax ([5]; IV, 3 mg/Kg, C0 extrapolated to T = 0 h): 63725 ng/mL
C0 or Cmax ([5]; PO solution, 30 mg/Kg): 6610 ng/mL
AUC(0-t) ([5]; in vivo, IV, 3 mg/Kg): 50700 ng·h/mL
half-life ([5]; in vivo, IV, 3 mg/Kg): 2.59 h
clearance ([5]; in vivo, IV, 3 mg/Kg, read-out: Cl_obs (observed clearance)): 0.986 mL/min/kg
Vd ([5]; in vivo, IV, 3 mg/Kg, read-out: Vss_obs): 0.101 L/kg
AUC(0-t) ([5]; in vivo, PO solution, 30 mg/Kg): 15200 ng·h/mL
half-life ([5]; in vivo, PO solution, 30 mg/Kg): 2.69 h
bioavailability ([5]; in vivo, po, 30 mg/kg, PO solution, 30 mg/Kg, read-out: F (bioavailability, fraction absorbed)): 3%
solubility in water [1]: poor solubility in water
solubility enhancement ([1]; phosphate buffer or simulated intestinal fluid): greatly enhanced
AUC(0-inf) ([6]; IV, 3 mg/kg): 43600 ng·h/mL
AUC(0-t) ([6]; IV, 3 mg/kg): 43600 ng·h/mL
Cmax ([6]; IV, 3 mg/kg): 49600 ng/mL
Tmax ([6]; IV, 3 mg/kg): 0.083 h
half-life ([6]; IV, 3 mg/kg): 2.58 h
AUC(0-inf) ([6]; IV, 10 mg/kg): 100000 ng·h/mL
AUC(0-t) ([6]; IV, 10 mg/kg): 100000 ng·h/mL
Cmax ([6]; IV, 10 mg/kg): 91200 ng/mL
Tmax ([6]; IV, 10 mg/kg): 0.083 h
half-life ([6]; IV, 10 mg/kg): 2.98 h
AUC(0-inf) ([6]; IV, 30 mg/kg): 214000 ng·h/mL
AUC(0-t) ([6]; IV, 30 mg/kg): 213000 ng·h/mL
Cmax ([6]; IV, 30 mg/kg): 180000 ng/mL
Tmax ([6]; IV, 30 mg/kg): 0.083 h
half-life ([6]; IV, 30 mg/kg): 2.56 h
AUC(0-inf) ([6]; oral suspension, 3 mg/kg): 237 ng·h/mL
AUC(0-t) ([6]; oral suspension, 3 mg/kg): 203 ng·h/mL
Cmax ([6]; oral suspension, 3 mg/kg): 30 ng/mL
Tmax ([6]; oral suspension, 3 mg/kg): 4 h
half-life ([6]; oral suspension, 3 mg/kg): 1.82 h
AUC(0-inf) ([6]; oral suspension, 10 mg/kg): 478 ng·h/mL
AUC(0-t) ([6]; oral suspension, 10 mg/kg): 399 ng·h/mL
Cmax ([6]; oral suspension, 10 mg/kg): 71.3 ng/mL
Tmax ([6]; oral suspension, 10 mg/kg): 2.67 h
half-life ([6]; oral suspension, 10 mg/kg): 3.41 h
AUC(0-inf) ([6]; oral suspension, 30 mg/kg): 768 ng·h/mL
AUC(0-t) ([6]; oral suspension, 30 mg/kg): 737 ng·h/mL
Cmax ([6]; oral suspension, 30 mg/kg): 142 ng/mL
Tmax ([6]; oral suspension, 30 mg/kg): 2.67 h
half-life ([6]; oral suspension, 30 mg/kg): 2.46 h
bioavailability ([6]; suspension dosing, read-out: Bioavailability): < 0.5%
bioavailability ([6]; suspension in 0.5% methylcellulose, read-out: oral bioavailability): < 5%
Structure (SMILES): COc1cccc(CNc2ccc(S(=O)(=O)Nc3nc4ccccc4s3)cc2)c1O [Compound 1, N-(benzo[d]thiazol-2-yl)-4-((2-hydroxy-3-methoxybenzyl)amino)benzenesulfonamide]
solubilization by solvents utilized in the prior art ([3]; majority of solvents, in words): did not solubilize Compound 1 to an adequate level
12-LOX inhibitory potency [2]: highly potent

solubility in water [1]: poor solubility in water
Structure (SMILES): COc1cccc(CNc2ccc(S(=O)(=O)Nc3nc4ccccc4o3)cc2)c1O [Compound 2, N-(benzo[d]oxazol-2-yl)-4-((2-hydroxy-3-methoxybenzyl)amino)benzenesulfonamide]
12-LOX inhibitor selectivity [2]: selective
12-LOX inhibitory potency [2]: highly potent
